Experimental data taken from patent US10131653B2, “Heterocyclic compound” (TAKEDA PHARMACEUTICAL COMPANY LIMITED, priority 2015, dated 2018).

Experiments:
Orexin-A-induced rats = assay: Locomotor activity test using Orexin-A-induced rats; format: in vivo; settings: rat; for Locomotor activity increased by cerebral ventricular administration of Orexin-A: 30 mg/kg subcutaneous; for Locomotor activity (Counts/90 min): 30 mg/kg subcutaneous 30 min before Orexin-A (1 nmol) cerebral ventricular administration, mean
Experimental: The male SD rats described in Experimental Example 2 were used.
From the day before drug administration, the animals were acclimated to a locomotor activity measurement apparatus (Muromachi Kikai Co., Ltd.). Solvent (0.5% (w/v) methyl cellulose solution) and the compound (30 mg/kg) of Example 1 or the compound (30 mg/kg) of Example 2 were subcutaneously administered 30 min before administration of saline or Orexin-A (1 nmol). The locomotor activity was quantified for 30 min to 90 min after the cerebral ventricular administration of Orexin-A. A comparison with saline+solvent administration group was tested by Student's t-test (*p≤0.05). A comparison with Orexin-A+solvent administration group was tested by Dunnett's test (#p≤0.05).

[1] = Measurement of solubility; format: physicochemical; settings: aqueous buffer, thermodynamic from solid; Britton-Robinson's Buffer pH 3, 37° C., shaking 2 hr; crystals from n-heptane suspension
Experimental: n-Heptane was added to the compounds of Examples 1, 2 and 102 at 40 mg/mL, respectively, and the mixtures were continued to be stirred at room temperature in a suspended state. After 3 to 7 days, the mixtures were filtered, and the obtained crystals as a sample were subjected to powder X-ray diffraction measurement (measurement condition: mentioned above) and solubility measurement.

human OX2 receptor = target: T1, human OX2 receptor (Homo sapiens, UniProt O43614); assay: Measurement of orexin receptor antagonistic activity (calcium fluorescence, FLIPRtetra); format: cell-based; settings: CHO, 10 μM test compound; CHO cells expressing human OX2 receptor; OX-A 0.3 nM; read-out: Human Orexin2 receptor inhibition (at 10 μM)
T1 construct: expressed in transfected cells; host or cells: CHO cells
T1 sequence (O43614 1-444): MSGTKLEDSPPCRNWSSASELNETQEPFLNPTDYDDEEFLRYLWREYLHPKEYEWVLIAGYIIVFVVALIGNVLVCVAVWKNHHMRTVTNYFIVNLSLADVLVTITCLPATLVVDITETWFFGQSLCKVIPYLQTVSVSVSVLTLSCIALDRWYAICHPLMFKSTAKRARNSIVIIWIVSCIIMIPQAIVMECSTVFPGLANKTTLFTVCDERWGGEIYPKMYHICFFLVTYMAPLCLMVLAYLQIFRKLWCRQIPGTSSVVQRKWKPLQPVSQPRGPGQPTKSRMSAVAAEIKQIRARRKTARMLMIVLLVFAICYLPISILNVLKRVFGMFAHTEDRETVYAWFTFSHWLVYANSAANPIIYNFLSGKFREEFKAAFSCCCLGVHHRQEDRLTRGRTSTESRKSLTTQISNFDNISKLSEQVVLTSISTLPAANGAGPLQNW
Summary of the method: (§1)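 CHO cells expressing human OX1 or OX2 receptor, cultured one day. Compound in HBSS/20 mM HEPES/0.1% BSA added, then orexin-A at 1 nM final (OX1) or 0.3 nM final (OX2); calcium fluorescence by FLIPRtetra every 1 s for 2 min.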

human OX1 receptor = target: T2, human OX1 receptor (Homo sapiens, UniProt O43613); assay: as above; format: cell-based; settings: CHO, 10 μM test compound; CHO cells expressing human OX1 receptor; OX-A 1 nM; read-out: Human Orexin1 receptor inhibition (at 10 μM)
T2 construct: expressed in transfected cells; host or cells: CHO cells
T2 sequence (O43613 1-425): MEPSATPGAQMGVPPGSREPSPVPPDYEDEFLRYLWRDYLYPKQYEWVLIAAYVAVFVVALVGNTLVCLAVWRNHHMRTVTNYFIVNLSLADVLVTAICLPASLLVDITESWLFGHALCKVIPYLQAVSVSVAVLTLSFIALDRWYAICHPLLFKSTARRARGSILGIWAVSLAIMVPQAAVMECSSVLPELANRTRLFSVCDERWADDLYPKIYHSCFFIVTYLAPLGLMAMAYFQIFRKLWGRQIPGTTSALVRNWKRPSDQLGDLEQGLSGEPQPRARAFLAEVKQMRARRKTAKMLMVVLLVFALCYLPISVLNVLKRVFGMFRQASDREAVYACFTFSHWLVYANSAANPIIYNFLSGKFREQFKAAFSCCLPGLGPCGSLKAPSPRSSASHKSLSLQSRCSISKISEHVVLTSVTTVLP
Summary of the method: as §1

SMILES	Locomotor activity increased by cerebral ventricular administration of Orexin-A (Orexin-A-induced rats)	Locomotor activity (Counts/90 min) (Orexin-A-induced rats)	solubility at 2 h [1]	inhibition at 10 µM (human OX2 receptor)	inhibition at 10 µM (human OX1 receptor)
Cc1cc(N2CCN(C(=O)c3cc(F)ccc3-n3nccn3)C[C@H](C)O2)nc(C)n1 [Example 1, ((7S)-2-(2,6-dimethylpyrimidin-4-yl)-7-methyl-1,2,5-oxadiazepan-5-yl)(5-fluoro-2-(2H-1,2,3-triazol-2-yl)phenyl)methanone]	significantly decreased	3528 Counts/90 min	≥ 5000 µg/mL	98%	47%
Cc1cc(N2CCN(C(=O)c3ccccc3-n3nccn3)C[C@H](C)O2)nc(C)n1 [Example 2, ((7S)-2-(2,6-dimethylpyrimidin-4-yl)-7-methyl-1,2,5-oxadiazepan-5-yl)(2-(2H-1,2,3-triazol-2-yl)phenyl)methanone]	significantly decreased	2638 Counts/90 min	≥ 5000 µg/mL	101%	68%
Cc1cc(N2CCN(C(=O)c3c(C)cccc3-c3ncccn3)CCO2)nc(C)n1 [Example 216, (2-(2,6-dimethylpyrimidin-4-yl)-1,2,5-oxadiazepan-5-yl)(2-methyl-6-(pyrimidin-2-yl)phenyl)methanone]				101%	59%
Cc1ccc(C(=O)N2CCN(c3cc(C)nc(C)n3)O[C@@H](C)C2)c(-c2ncccn2)c1 [Example 217, ((7S)-2-(2,6-dimethylpyrimidin-4-yl)-7-methyl-1,2,5-oxadiazepan-5-yl)(4-methyl-2-(pyrimidin-2-yl)phenyl)methanone]				101%	50%
Cc1cc(N2CCN(C(=O)c3ccc(F)cc3-c3ncccn3)C[C@H](C)O2)nc(C)n1 [Example 218, ((7S)-2-(2,6-dimethylpyrimidin-4-yl)-7-methyl-1,2,5-oxadiazepan-5-yl)(4-fluoro-2-(pyrimidin-2-yl)phenyl)methanone]				101%	91%
Cc1nccc(N2CCN(C(=O)c3cc(Cl)ccc3-c3ncccn3)C[C@H](C)O2)n1 [Example 219, (5-chloro-2-(pyrimidin-2-yl)phenyl)((7S)-7-methyl-2-(2-methylpyrimidin-4-yl)-1,2,5-oxadiazepan-5-yl)methanone]				100%	72%
Cc1cc(N2CCN(C(=O)c3cccc(F)c3-c3ncccn3)C[C@H](C)O2)nc(C)n1 [Example 220, ((7S)-2-(2,6-dimethylpyrimidin-4-yl)-7-methyl-1,2,5-oxadiazepan-5-yl)(3-fluoro-2-(pyrimidin-2-yl)phenyl)methanone]				101%	15%
Cc1cc(N2CCN(C(=O)c3cc(Cl)ccc3-c3ncc(F)cn3)[C@H](C)CO2)nc(C)n1 [Example 221, (5-chloro-2-(5-fluoropyrimidin-2-yl)phenyl)((6R)-2-(2,6-dimethylpyrimidin-4-yl)-6-methyl-1,2,5-oxadiazepan-5-yl)methanone]				102%	51%
Cc1cc(N2CCN(C(=O)c3ccccc3-c3ncc(F)cn3)CCO2)nc(C)n1 [Example 222, (2-(2,6-dimethylpyrimidin-4-yl)-1,2,5-oxadiazepan-5-yl)(2-(5-fluoropyrimidin-2-yl)phenyl)methanone]				99%	32%
Cc1cc(N2CCN(C(=O)c3cc(F)c(F)cc3-c3ncc(F)cn3)CCO2)nc(C)n1 [Example 223, (4,5-difluoro-2-(5-fluoropyrimidin-2-yl)phenyl)(2-(2,6-dimethylpyrimidin-4-yl)-1,2,5-oxadiazepan-5-yl)methanone]				101%	17%
Cc1cc(N2CCN(C(=O)c3cc(Cl)ccc3-c3ncc(F)cn3)CCO2)nc(C)n1 [Example 224, (5-chloro-2-(5-fluoropyrimidin-2-yl)phenyl)(2-(2,6-dimethylpyrimidin-4-yl)-1,2,5-oxadiazepan-5-yl)methanone]				100%	53%
Cc1nc(N2CCN(C(=O)c3cc(Cl)ccc3-c3ncccn3)CCO2)cc(C(F)(F)F)n1 [Example 225, (5-chloro-2-(pyrimidin-2-yl)phenyl)(2-(2-methyl-6-(trifluoromethyl)pyrimidin-4-yl)-1,2,5-oxadiazepan-5-yl)methanone]				103%	74%
Cc1cc(N2CCN(C(=O)c3cc(Cl)ccc3-c3ncccn3)CCO2)nc(C)n1 [Example 226, (5-chloro-2-(pyrimidin-2-yl)phenyl)(2-(2,6-dimethylpyrimidin-4-yl)-1,2,5-oxadiazepan-5-yl)methanone]				101%	80%
Cc1nc(N2CCN(C(=O)c3cc(F)c(F)cc3-c3ncccn3)C[C@H](C)O2)cc(C(F)(F)F)n1 [Example 227, (4,5-difluoro-2-(pyrimidin-2-yl)phenyl)((7S)-7-methyl-2-(2-methyl-6-(trifluoromethyl)pyrimidin-4-yl)-1,2,5-oxadiazepan-5-yl)methanone]				97%	78%
Cc1cc(N2CCN(C(=O)c3cc(F)c(F)cc3-c3ncccn3)CCO2)nc(C)n1 [Example 228, (4,5-difluoro-2-(pyrimidin-2-yl)phenyl)(2-(2,6-dimethylpyrimidin-4-yl)-1,2,5-oxadiazepan-5-yl)methanone]				99%	36%
Cc1nccc(N2CCN(C(=O)c3cc(Cl)ccc3-c3ncccn3)[C@H](C)CO2)n1 [Example 229, (5-chloro-2-(pyrimidin-2-yl)phenyl)((6R)-6-methyl-2-(2-methylpyrimidin-4-yl)-1,2,5-oxadiazepan-5-yl)methanone]				101%	40%
Cc1ncc(Cl)c(N2CCN(C(=O)c3cc(Cl)ccc3-c3ncccn3)[C@H](C)CO2)n1 [Example 230, ((6R)-2-(5-chloro-2-methylpyrimidin-4-yl)-6-methyl-1,2,5-oxadiazepan-5-yl)(5-chloro-2-(pyrimidin-2-yl)phenyl)methanone]				103%	66%
Cc1cc(N2CCN(C(=O)c3cc(F)c(F)cc3-c3ncccn3)[C@H](C)CO2)nc(C)n1 [Example 231, (4,5-difluoro-2-(pyrimidin-2-yl)phenyl)((6R)-2-(2,6-dimethylpyrimidin-4-yl)-6-methyl-1,2,5-oxadiazepan-5-yl)methanone]				103%	38%
Cc1cc(N2CCN(C(=O)c3ccccc3-c3noc(C)n3)C[C@H](C)O2)nc(C)n1 [Example 232, ((7S)-2-(2,6-dimethylpyrimidin-4-yl)-7-methyl-1,2,5-oxadiazepan-5-yl)(2-(5-methyl-1,2,4-oxadiazol-3-yl)phenyl)methanone]				102%	55%
COC(=O)c1ccccc1C(=O)N1CCN(c2cc(C)nc(C)n2)O[C@@H](C)C1 [Example 233, methyl 2-(((7S)-2-(2,6-dimethylpyrimidin-4-yl)-7-methyl-1,2,5-oxadiazepan-5-yl)carbonyl)benzoate]				87%	17%
